This note sets out measurements from patent publication US5300672A (priority 1992, dated 1994).

Read-outs that look alike come from different tables or passages of the source. A value given as a limit tells only on which side of the number the result lay.

For one assay, the system named is Pseudomonas fluorescens. Description: Alternate Minimum Inhibitory Concentrations Test (Table 4), Ps.fl. The assay is classed as cell-based. Conditions: Table 4 alternate test, 250 ppm to 0.8 ppm in TSB, 72 hours, 30° C.; for MIC: Pseudomonas fluorescens, read-out: MIC Ps.fl. Summed up:
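Broth microdilution MIC in TSB: compound (from acetone stock) serially diluted 1:1 from 250 ppm to 0.8 ppm, inoculated with diluted 24 h culture. After 3 days at 30 °C, the lowest concentration with no growth was recorded as MIC.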

Assay [1] deals with Pseudoperonospora cubensis. Briefly: whole plant or invertebrate. The format is in vivo.
Another assay deals with Piricularia oryzae. Briefly: whole plant or invertebrate. The format is in vivo. Conditions: for pest or weed control at 100 ppm: read-out: % Control RB, application rate 100 ppm; for pest or weed control at 200 ppm: read-out: % Control RB, application rate 200 ppm.
Assay [2] deals with Pellicularia filamentosa (f. sp. sasiki). Description: whole plant or invertebrate. The assay is classed as in vivo.
For the next assay, the system named is Phytophthora infestans. Description: whole plant or invertebrate. The assay is classed as in vivo. Conditions: for pest or weed control at 100 ppm / pest or weed control at 25 ppm / pest or weed control at 200 ppm: Phytophthora infestans, in Solanum lycopersicum, 96 h; for pest or weed control at 25 ppm: read-out: % Control TLB, application rate 25 ppm.
For assay [3], the system named is Puccinia recondita (f. sp. tritici Races PKB and PLD). Briefly: whole plant or invertebrate. The assay is classed as in vivo.
The test system of assay [4] is Erysiphe graminis (f. sp. tritici). Briefly: whole plant or invertebrate. The assay is classed as in vivo.
The subject of assay [5] is Puccinia graminis (f. sp. tritici Race 15B-2). Description: whole plant or invertebrate. The assay is classed as in vivo. Conditions: for pest or weed control at 200 ppm / pest or weed control at 100 ppm: Puccinia graminis, 336 h, read-out: % Control WSR.
Where [6] appears, read: Pseudoperonospora cubensis, in Cucumis sativus, 168 h, read-out: % Control CDM.
[7] abbreviates: Puccinia recondita, 240 h, read-out: % Control WLR.
Setting [8] is: Blumeria graminis, read-out: % Control WPM.
Setting [9] is: read-out: % Control TLB, application rate 100 ppm.

Broadly, the MIC is the lowest concentration that inhibits growth of the organism. For the molecule `CCCCCCCCNC(=O)/C=C\SC(=O)c1ccc([N+](=O)[O-])o1` [Compound 17, N-octyl-cis-3-[(5-nitro-2-furoyl)thio]acrylamide], in the assay with Pseudomonas fluorescens, the MIC is more than 250 µg/mL. Besides, the pest or weed control at 50 ppm in assay [1] (setting [6]) worked out at 50%. For the same molecule, the pest or weed control at 100 ppm in the assay on Piricularia oryzae (Pyricularia oryzae) amounted to 80%; in assay [2] (120 h, read-out: % Control RSB), 0%; in the assay with Phytophthora infestans (read-out: % Control TLB), 90%; in assay [3] (setting [7]), 0%; in assay [4] (setting [8]), 0%. In addition, in assay [5], the pest or weed control at 200 ppm was 95%.
Take `CCCCCCCCNC(=O)/C=C\SC(=O)c1cc(Cl)sc1Cl` [Compound 18, N-octyl-cis-3-[(2,5-dichloro-3-thiophene)carbonylthio]acrylamide]: in the assay on Pseudomonas fluorescens, the MIC was more than 250 µg/mL. The pest or weed control at 50 ppm in assay [1] (setting [6]) stood at 70%. For the same molecule, the pest or weed control at 100 ppm in the assay with Piricularia oryzae (Pyricularia oryzae) stood at 50%; in assay [2] (120 h, read-out: % Control RSB), 0%; in assay [3] (setting [7]) it was 0%; in assay [4] (setting [8]), 0%. Also, in the assay with Phytophthora infestans, the pest or weed control at 25 ppm was determined as 100%. Also, in assay [5], the pest or weed control at 200 ppm was 50%.
For `CCCCCCCCNC(=O)/C=C\SC(=O)c1cccc(CCl)c1` [Compound 22, N-octyl-cis-3-[(3-(chloromethyl)benzoyl)thio]acrylamide], the MIC in the assay on Pseudomonas fluorescens is more than 250 µg/mL. Besides, the pest or weed control at 50 ppm in assay [1] (setting [6]) was 99%. Moreover, the pest or weed control at 100 ppm amounted to 0% with Piricularia oryzae (Pyricularia oryzae); 0% in assay [2] (120 h, read-out: % Control RSB); 0% in assay [3] (setting [7]); 0% in assay [4] (setting [8]). The pest or weed control at 25 ppm in the assay on Phytophthora infestans amounted to 95%. The pest or weed control at 200 ppm in assay [5] was 75%.
For `CCCCCCCCNC(=O)/C=C\SC(=O)C(C)(C)C` [Compound 25, N-octyl-cis-3-[(1,1-dimethylpropanoyl)thio]acrylamide], the MIC in the assay on Pseudomonas fluorescens was more than 250 µg/mL. Besides, the pest or weed control at 50 ppm in assay [1] (setting [6]) amounted to 85%. For the same molecule, the pest or weed control at 100 ppm in the assay with Piricularia oryzae (Pyricularia oryzae) came to 0%; in assay [2] (120 h, read-out: % Control RSB) it was 0%; in the assay with Phytophthora infestans (setting [9]), 100%; in assay [3] (setting [7]) it was 0%; in assay [4] (setting [8]), 0%; in assay [5] it was 90%.
On to `CCCCCCCCNC(=O)/C=C\SC(=O)COc1ccccc1` [Compound 26, N-octyl-cis-3-(phenoxyacetylthio)acrylamide], for which, in the assay on Pseudomonas fluorescens, the MIC was more than 250 µg/mL. For the same molecule, the pest or weed control at 50 ppm in assay [1] (setting [6]) stood at 85%. For the same molecule, the pest or weed control at 100 ppm is 80% in the assay with Piricularia oryzae (Pyricularia oryzae); 0% in assay [2] (120 h, read-out: % Control RSB); 90% in the assay on Phytophthora infestans (read-out: % Control TLB); 0% in assay [3] (setting [7]); 0% in assay [4] (setting [8]); 90% in assay [5].
With `CCCCCCCCNC(=O)/C=C\SC(=O)CCCCl` [Compound 29, N-octyl-cis-3-[(4-chlorobutanoyl)thio]acrylamide], in the assay on Pseudomonas fluorescens, the MIC was more than 250 µg/mL. Besides, the pest or weed control at 50 ppm in assay [1] (setting [6]) is 85%. Further, the pest or weed control at 200 ppm (in the assay with Piricularia oryzae (Pyricularia oryzae); in assay [5]) was 75% throughout. The pest or weed control at 100 ppm turned out to be 0% in assay [2] (120 h, read-out: % Control RSB); 90% in the assay on Phytophthora infestans (read-out: % Control TLB); 0% in assay [3] (setting [7]); 0% in assay [4] (setting [8]).
As to `CCCCCCCCNC(=O)/C=C\SC(=O)C(=O)OC` [Compound 30, N-octyl-cis-3-(methyloxalylthio)acrylamide], in the assay with Pseudomonas fluorescens, the MIC was more than 250 µg/mL. Besides, in assay [1] (setting [6]), the pest or weed control at 50 ppm was 70%. For the same molecule, the pest or weed control at 100 ppm in the assay on Piricularia oryzae (Pyricularia oryzae) amounted to 0%; in assay [2] (120 h, read-out: % Control RSB), 0%; in the assay with Phytophthora infestans (read-out: % Control TLB), 80%; in assay [4] (setting [8]), 0%. Also, the pest or weed control at 25 ppm in assay [3] (setting [7]) stood at 50%. For the same molecule, the pest or weed control at 200 ppm in assay [5] turned out to be 75%.
Take `CCCCCCCCNC(=O)/C=C\SCc1ccc(C(F)(F)F)cc1` [Compound 33, N-octyl-cis-3-[(4-(trifluoromethyl)benzyl)thio]acrylamide]: the MIC with Pseudomonas fluorescens was more than 250 µg/mL. Moreover, in assay [1] (setting [6]), the pest or weed control at 50 ppm came to 50%. In addition, in the assay on Piricularia oryzae (Pyricularia oryzae, read-out: % Control RB, application rate 25 ppm), the pest or weed control at 25 ppm came out at 80%. Further, the pest or weed control at 100 ppm in assay [2] (120 h, read-out: % Control RSB) came out at 0%; with Phytophthora infestans (read-out: % Control TLB) it was 80%; in assay [3] (setting [7]), 0%; in assay [4] (setting [8]), 85%. The pest or weed control at 200 ppm in assay [5] stood at 75%.
For `CCCCCCCCNC(=O)C=CSC(CO)COc1ccccc1` (stereo not drawn) [Compound 40, N-octyl-cis-3-[(1-hydroxy-3-phenoxy-2-propane)thio]acrylamide], the “MIC Ps.fl” value against Pseudomonas fluorescens is more than 250 Ppm. In addition, the “% Control CDM” value in assay [1] (in vivo) is given as 85 % Control. In addition, the “% Control RB” value in the assay on Piricularia oryzae (in vivo) was found to be 75 % Control. Further, the “% Control RSB” value in assay [2] (in vivo) was determined as 0 % Control. For the same molecule, the “% Control TLB” value in the assay on Phytophthora infestans (application rate 100 ppm) amounted to 95 % Control. Also, the “% Control WLR” value in assay [3] (in vivo) came to 0 % Control. In assay [4] (in vivo), the “% Control WPM” value is 50 % Control. The “% Control WSR” value in assay [5] (application rate 200 ppm) is recorded as 75 % Control.
Regarding `CCCCCCCCNC(=O)/C=C\SC(=O)C(C)(C)CCl` [Compound 44, N-octyl-cis-3-[(2,2-dimethyl-3-chloropropanoyl)thio]acrylamide], the MIC in the assay with Pseudomonas fluorescens was more than 250 µg/mL. The pest or weed control at 200 ppm in assay [1] (setting [6]) was 0%; in the assay on Piricularia oryzae (Pyricularia oryzae) it was 0%; in assay [2] (120 h, read-out: % Control RSB), 0%; in the assay with Phytophthora infestans (read-out: % Control TLB) it was 90%; in assay [3] (setting [7]) it was 0%; in assay [4] (setting [8]) it was 0%. In assay [5], the pest or weed control at 100 ppm amounted to 0%.
On to `CCCCCCCCNC(=O)/C=C\SC(=O)CCC(=O)OC` [Compound 51, N-octyl-cis-3-[(3-methoxycarbonylpropanoyl)thio]acrylamide], for which the MIC in the assay with Pseudomonas fluorescens was more than 250 µg/mL. The pest or weed control at 50 ppm in assay [1] (setting [6]) came out at 85%. In addition, the pest or weed control at 200 ppm in the assay on Piricularia oryzae (Pyricularia oryzae) was 0%; in assay [5] it was 90%. The pest or weed control at 25 ppm in assay [2] (120 h, read-out: % Control RSB) is 90%. Further, the values for the pest or weed control at 100 ppm (in the assay with Phytophthora infestans (read-out: % Control TLB); in assay [3] (setting [7]); in assay [4] (setting [8])) were 80%, 0% and 0%, respectively.
Regarding `CCCCCCCCNC(=O)/C=C\SC(=O)CCC(=O)OCC` [Compound 52, N-octyl-cis-3-[(3-ethoxycarbonylpropanoyl)thio]acrylamide], the MIC in the assay on Pseudomonas fluorescens is more than 250 µg/mL. In addition, the pest or weed control at 50 ppm in assay [1] (setting [6]) stood at 70%. Besides, the pest or weed control at 200 ppm worked out at 0% with Piricularia oryzae (Pyricularia oryzae) and 90% in assay [5]. Moreover, the pest or weed control at 100 ppm in assay [2] (120 h, read-out: % Control RSB) came out at 0%; in the assay with Phytophthora infestans (read-out: % Control TLB) it was 80%; in assay [3] (setting [7]) it was 0%; in assay [4] (setting [8]), 0%.
For the molecule `CCCCCCCCNC(=O)/C=C\SC(=O)c1cccnc1` [Compound 55, N-octyl-cis-3-[(3-pyridine)carbonylthio]acrylamide], in the assay with Pseudomonas fluorescens, the MIC was more than 250 µg/mL. The pest or weed control at 12 ppm in assay [1] (setting [6]) turned out to be 70%. In addition, the pest or weed control at 200 ppm in the assay with Piricularia oryzae (Pyricularia oryzae) was determined as 0%; in assay [5] it was 90%. In addition, the pest or weed control at 100 ppm was 0% in assay [2] (120 h, read-out: % Control RSB); 95% with Phytophthora infestans (setting [9]); 0% in assay [3] (setting [7]); 50% in assay [4] (setting [8]).
Turning to `CCCCCCCCNC(=O)/C=C\SC(=O)c1ccc2ccccc2c1` [Compound 56, N-octyl-cis-3-[(2-naphthanoyl)thio]acrylamide], in the assay with Pseudomonas fluorescens, the minimal inhibitory concentration (MIC) was more than 250 µg/mL. In assay [1] (setting [6]), the pest or weed control at 12 ppm is 50%. Besides, the pest or weed control at 200 ppm was determined as 0% with Piricularia oryzae (Pyricularia oryzae); 80% in the assay on Phytophthora infestans (read-out: % Control TLB); 0% in assay [3] (setting [7]); 0% in assay [4] (setting [8]); 75% in assay [5]. The pest or weed control at 50 ppm in assay [2] (120 h, read-out: % Control RSB) came to 80%.
Take `CCCCCCCCNC(=O)/C=C\SC(=O)/C=C/C(=O)OCC` [Compound 57, N-octyl-cis-3-[(trans-3-ethoxycarbonyl-2-propenoyl)thio]acrylamide]: the MIC with Pseudomonas fluorescens is more than 250 µg/mL. Further, in assay [1] (setting [6]), the pest or weed control at 50 ppm worked out at 70%. Further, the pest or weed control at 200 ppm in the assay with Piricularia oryzae (Pyricularia oryzae) turned out to be 75%; in assay [2] (120 h, read-out: % Control RSB), 0%; with Phytophthora infestans (read-out: % Control TLB) it was 90%; in assay [3] (setting [7]) it was 25%; in assay [5] it was 90%. For the same molecule, in assay [4] (setting [8]), the pest or weed control at 12 ppm worked out at 50%.
Take `C/C=C/C=C/C(=O)S/C=C\C(=O)NCCCCCCCC` [Compound 59, N-octyl-cis-3-[(trans,trans-2,4-hexadienoyl)thio]acrylamide]: the MIC in the assay with Pseudomonas fluorescens was more than 250 µg/mL. For the same molecule, the pest or weed control at 50 ppm in assay [1] (setting [6]) is 70%; in assay [2] (120 h, read-out: % Control RSB) it was 50%. In addition, the pest or weed control at 200 ppm in the assay on Piricularia oryzae (Pyricularia oryzae) stood at 0%; with Phytophthora infestans (read-out: % Control TLB), 80%; in assay [3] (setting [7]) it was 0%; in assay [4] (setting [8]), 0%; in assay [5] it was 50%.
